Data: US20260041093A1, “Ionic Derivatives Of Aromatic Carboxylic Acid For Use As Plant Stimulants, Method For Stimulating Plants And Use Of These Derivatives For Manufacturing Compositions For Stimulating Plants” (FUNDACJA UNIWERSYTETU IM. ADAMA MICKIEWICZA W POZNANIU, priority 2022, published 2026)
Like-named read-outs stand apart in the source and are kept apart here.

Legend:
broccoli = assay: Broccoli seedlings in pots sprayed: height, fresh and dry weight (Example 4); format: in vivo
Method: Broccoli seedling were planted into pots with peat substrate (P9 pots having 0.5 l). Pots were placed in greenhouse and cultivated for a 1 month. […] 2-fluoroethyl(trimethyl)ammonium benzo[1,2,3]thiadiazole-7-carboxylate; 3. 2-bromoethyl(trimethyl)ammonium benzo[1,2,3]thiadiazole-7-carboxylate; 4. 2-chloroethyl(trimethyl)ammonium benzo[1,2,3]thiadiazole-7-carboxylate; 5. 2-iodoethyl(trimethyl)ammonium benzo[1,2,3]thiadiazole-7-carboxylate used at a concentration of 30 mg/L and 6. 2-hydroxyethyl(trimethyl)ammonium 3-chlorosalicylate (tested also at a concentration of 50 mg/L); 7. 3-chlorosalicylate 2-fluoroethyl(trimethyl)ammonium; 8. 3-chlorosalicylate 2-bromoethyl(trimethyl)ammonium; 9. 3-chlorosalicylate 2-chloroethyl(trimethyl)ammonium; 10. 3-chlorosalicylate 2-iodoethyl(trimethyl)ammonium used at a concentration of 80 mg/L. Plants were sprayed with tested substances three times at 10-day intervals. Plants treated with water only were the untreated control. During the course of the experiment, the height of the plants was measured, and at the end the fresh and dry weight of the aboveground part was evaluated. The experiment was conducted in 4 repetitions with 5 plants in each (a total of 20 plants per each combination).

bell pepper = assay: Bell pepper seedlings in pots sprayed: height, fresh and dry weight (Example 5); format: in vivo; conditions: 3-chlorosalicylate 80 mg/L, benzothiadiazole salt 30 mg/L
Method: Pepper seedlings were planted into pots with peat substrate (P9 pots having 0,5 l). Pots were placed in greenhouse and cultivated for a 1 month. […] Plants treated with water only were the untreated control. During the course of the experiment, the height of the plants was measured, and at the end the fresh and dry weight of the aboveground part was evaluated.

[1] = test system: apple trees (M9 rootstocks); conditions: 4 sprays at 14-day intervals; 3-chlorosalicylate 100 mg/L, benzothiadiazole salt 25 mg/L
From the text: Flowers were counted during the experiment, and the number of shoots and leaves in the fall.

tomato seedlings = assay: Tomato seedlings in pots sprayed 3 times: height, fresh and dry weight, chlorophyll (Example 3); format: in vivo; conditions: 80 mg/L, benzothiadiazole salt 30 mg/L
From the text: Tomato seedlings (12 according to development scale BBCH) were planted into pots with peat substrate (P9 pots having 0.5 l). Plant pots were placed in greenhouse and cultivated for a 1 and a half month. Plants were sprayed with tested substance 3 times, in 10-day interval. […] 2-methoxyethyl(trimethyl)-ammonium benzo[1,2,3]thiadiazole-7-carboxylate; 3. […] 2-methoxyethyl(trimethyl)ammonium 3-chlorosalicylate; 7. 2-ethoxyethyl(trimethyl)ammonium 3-chlorosalicylate; 8. ethyl(trimethyl)ammonium 3-chlorosalicylate at a concentration od 80 mg/l. Plants were sprayed with tested substances three times at 10-day intervals. Plants in peat substrate treated with water only were the control. During the course of the experiment, the height of the plants was measured, and at the end the fresh and dry weight of the aboveground part was evaluated. Moreover chlorophyll content was measured. The experiment was conducted in 4 repetitions with 5 plants in each (a total of 20 plants per each variant of treatment).

winter wheat = test system: winter wheat
Method: The experiment was established using the long strip method, in four repetitions Gross area of each plot was 48 m^2, while the harvest area was 23.25 m^2 net. Following variants of treatment were tested: • 1. Control—no stimulant application, standard fungicide programme • 2. Stimulant application at BBCH 32, standard fungicide programme • 3. Stimulant application at BBCH 32, no fungicide application • 4. Stimulant application at BBCH 55 and 10-12 days later, standard fungicide programme • 5. […] In this experiment, standard NPK fertilization was applied, using both bulk and liquid fertilizers.
The experiment was established using the long strip method, in four repetitions Gross area of each plot was 48 m2, while the harvest area was 23.25 m2 net. Following variants of treatment were tested: • 1. Control—no stimulant application, standard fungicide programme, • 2. Stimulant application at BBCH 32, standard fungicide programme • 3. Stimulant application at BBCH 32, no fungicide application • 4. Stimulant application at BBCH 55 and 10-12 days later, standard fungicide programme • 5. […] In the experiment, uniform NPK fertilization was applied, using both bulk and liquid fertilizers.

[2] = 3-chlorosalicylate 80 mg/L, benzothiadiazole salt 30 mg/L
[3] = BBCH 32, standard fungicide protection, 80 mg/L, benzothiadiazole salt 30 mg/L
[4] = BBCH 32, stimulant only, 80 mg/L, benzothiadiazole salt 30 mg/L
[5] = BBCH 55, standard fungicide protection, 80 mg/L, benzothiadiazole salt 30 mg/L
[6] = BBCH 55, without fungicide, 80 mg/L, benzothiadiazole salt 30 mg/L
[7] = first sampling date, 80 mg/L, benzothiadiazole salt 30 mg/L
[8] = last sampling date, late milk, 80 mg/L, benzothiadiazole salt 30 mg/L

C[N+](C)(C)CCO.O=C([O-])c1cccc(Cl)c1O [choline 3-chlorosalicylate]
Average dry mass (broccoli; 50 mg/L): 0.6 b g | Average fresh mass (broccoli; 50 mg/L): 6.8 b g | Average plant height, initial height, before first treatment (broccoli; 50 mg/L): 37.6 b mm | Average plant height, second treatment (broccoli; 50 mg/L): 146.4 a mm | Average plant height, third treatment (broccoli; 50 mg/L): 178.5 a mm | Plant height increase (broccoli; 50 mg/L): 140.9 a mm | Average dry mass (broccoli; [2]): 0.6 b g | Average fresh mass (broccoli; [2]): 6.7 b g | Average plant height, initial height, before first treatment (broccoli; [2]): 36.5 a mm | Average plant height, second treatment (broccoli; [2]): 146.0 a mm | Average plant height, third treatment (broccoli; [2]): 179.5 a mm | Plant height increase (broccoli; [2]): 143.0 a mm | Average dry mass (bell pepper): 12.2 b g | Average fresh mass (bell pepper): 85.7 b g | Average plant height, initial height, before first treatment (bell pepper): 41.5 a mm | Average plant height, second treatment (bell pepper): 161.8 c mm | Average plant height, third treatment (bell pepper): 221.5 b mm | Plant height increase (bell pepper): 180.0 b mm | Average number of flowers per plant [1]: 30.3 b | Average number of leaves per plant [1]: 45.3 b | Average number of shoots per plant [1]: 6.7 b | Average plant height, before second treatment (tomato seedlings; chitosan lactate 50 mg/l): 143.2 b mm | Average plant height, before third treatment (tomato seedlings; chitosan lactate 50 mg/l): 345.1 b mm | Average plant height, initial height, before first treatment (tomato seedlings; chitosan lactate 50 mg/l): 59.3 a mm | Chlorophyll content (SPAD), a day after treatment #1 (tomato seedlings; chitosan lactate 50 mg/l): 74.6 b | Chlorophyll content (SPAD), a day after treatment #2 (tomato seedlings; chitosan lactate 50 mg/l): 76.2 b | Chlorophyll content (SPAD), a day after treatment #3 (tomato seedlings; chitosan lactate 50 mg/l): 79.3 b | Plant height increase (tomato seedlings; chitosan lactate 50 mg/l): 285.8 b mm | Average dry mass (tomato seedlings; above-ground part): 83.1 b g | Average fresh mass (tomato seedlings; above-ground part): 327.7 b g | Chlorophyll content (SPAD), Treatment #1 (tomato seedlings; before treatment #1, chitosan lactate 50 mg/l): 48.5 a | Chlorophyll content (SPAD), Treatment #2 (tomato seedlings; before treatment #2, chitosan lactate 50 mg/l): 48.3 a | Chlorophyll content (SPAD), Treatment #3 (tomato seedlings; before treatment #3, chitosan lactate 50 mg/l): 49.5 a | increase in calcium uptake (winter wheat; [3]): 4% | increase in gluten content of wheat grain (winter wheat; [3]): 8% | increase in magnesium uptake (winter wheat; [3]): 4% | increase in nitrogen uptake (winter wheat; [3]): 7% | increase in phosphorus uptake (winter wheat; [3]): 8% | increase in potassium uptake (winter wheat; [3]): 6% | increase in protein content of wheat grain (winter wheat; [3]): 10% | increase in calcium uptake (winter wheat; [4]): 6% | increase in gluten content of wheat grain (winter wheat; [4]): 7% | increase in magnesium uptake (winter wheat; [4]): 5% | increase in nitrogen uptake (winter wheat; [4]): 7% | increase in phosphorus uptake (winter wheat; [4]): 9% | increase in potassium uptake (winter wheat; [4]): 8% | increase in protein content of wheat grain (winter wheat; [4]): 8% | increase in calcium uptake (winter wheat; [5]): 4% | increase in gluten content of wheat grain (winter wheat; [5]): 9% | increase in magnesium uptake (winter wheat; [5]): 5% | increase in nitrogen uptake (winter wheat; [5]): 14% | increase in phosphorus uptake (winter wheat; [5]): 12% | increase in potassium uptake (winter wheat; [5]): 6% | increase in protein content of wheat grain (winter wheat; [5]): 11% | increase in calcium uptake (winter wheat; [6]): 5% | increase in gluten content of wheat grain (winter wheat; [6]): 8% | increase in magnesium uptake (winter wheat; [6]): 6% | increase in nitrogen uptake (winter wheat; [6]): 16% | increase in phosphorus uptake (winter wheat; [6]): 12% | increase in potassium uptake (winter wheat; [6]): 5% | increase in protein content of wheat grain (winter wheat; [6]): 10% | fresh weight of aboveground part higher than control (winter wheat; first sampling date (beginning of shooting), first of two sprayed objects (with / without fungicide, respectively), 80 mg/L, benzothiadiazole salt 30 mg/L): 12% | dry root mass higher than control (winter wheat; [7]): 19% | fresh root mass higher than control (winter wheat; [7]): 15% | dry weight of aboveground part higher than control (winter wheat; first sampling date, first of two sprayed objects, 80 mg/L, benzothiadiazole salt 30 mg/L): 11% | fresh weight of aboveground part higher than control (winter wheat; first sampling date, second of two sprayed objects (with / without fungicide, respectively), 80 mg/L, benzothiadiazole salt 30 mg/L): 17% | dry weight of aboveground part higher than control (winter wheat; first sampling date, second of two sprayed objects, 80 mg/L, benzothiadiazole salt 30 mg/L): 16% | SPAD chlorophyll readings versus control (winter wheat; first term, stimulant at BBCH 32, with or without fungicide): significantly higher | more aboveground biomass, BBCH 55 treatment compared to control (winter wheat; [8]): 31% | more aboveground biomass, BBCH 55 treatment compared to plants sprayed at an earlier stage (winter wheat; [8]): 12% | more root biomass, BBCH 55 treatment compared to control (winter wheat; [8]): 25% | more root biomass, BBCH 55 treatment compared to plants sprayed at an earlier stage (winter wheat; [8]): 17% | fresh and dry root weight versus other experimental facilities (winter wheat; second sampling date): comparable | fresh and dry matter yields versus other experimental facilities (winter wheat; second sampling date, end of heading): comparable | SPAD chlorophyll readings (winter wheat; second term, stimulant at BBCH 32 without fungicide versus other objects): higher | chlorophyll content of wheat leaves versus control (winter wheat; third term, with or without fungicide): significantly higher
